Laboratory results published in patent US5696096A, “Pradimicin derivatives” (Bristol-Myers Squibb Company, priority 1990, dated 1997).
≈ marks a conversion by molar mass, not a printed value.

Key:
Assay in all cases: In vitro antifungal activity (MIC), serial agar dilution method
Assay type in all cases: cell-based
Conditions in all cases: Sabouraud dextrose agar, 40 hours at 28° C.
Cryptococcus neoformans = system: Cryptococcus neoformans
Procedure: (§1) Antifungal activities of representative compounds of the present invention were evaluated in vitro. The minimum inhibitory concentrations (MICs) against various fungi were determined by serial agar dilution method using Sabouraud dextrose agar. Thus, approximately 0.003 ml of fungal suspension containing 10^6 cells/ml was applied to the surface of agar plates containing the test antibiotics. The MIC values recorded after the cultures had been incubated for 40 hours at 28° C. are set forth below in Table 1.

Aspergillus fumigatus = system: Aspergillus fumigatus
Procedure: as §1

Candida albicans = system: Candida albicans
Procedure: as §1

[1] = system: Trichophyton mentagrophytes
Procedure: as §1

| Compound | MIC (Cryptococcus neoformans) [µg/mL] | MIC (Aspergillus fumigatus) [µg/mL] | MIC (Candida albicans) [µg/mL] | MIC [1] [µg/mL] |
| --- | --- | --- | --- | --- |
| CN[C@@H]1[C@H](O)[C@@H](O)[C@H](O[C@H]2c3cc(C)c(C(=O)N[C@H](C)C(=O)O)c(O)c3-c3c(cc4c(c3O)C(=O)c3cc(OC)cc(O)c3C4=O)[C@@H]2O)O[C@@H]1C [Pradimicin B, reference compound] | 0.8 (≈ 1.13 µM) | 6.3 (≈ 8.89 µM) | 3.1 (≈ 4.37 µM) | 6.3 (≈ 8.89 µM) |
| CN[C@@H]1[C@H](O[C@@H]2O[C@H](C)[C@H](O)[C@H](O)[C@H]2O)[C@@H](O)[C@H](O[C@H]2c3cc(C)c(C(=O)N[C@H](C)C(=O)O)c(O)c3-c3c(cc4c(c3O)C(=O)c3cc(OC)cc(O)c3C4=O)[C@@H]2O)O[C@@H]1C [Example 5, 3'-O-(β-D-Fucopyranosyl)pradimicin B] | 1.6 (≈ 1.87 µM) | 3.1 (≈ 3.63 µM) | 6.3 (≈ 7.37 µM) | 1.6 (≈ 1.87 µM) |
| CN[C@@H]1[C@H](O[C@@H]2OC[C@@H](O)[C@@H](O)[C@H]2O)[C@@H](O)[C@H](O[C@H]2c3cc(C)c(C(=O)N[C@H](C)C(=O)O)c(O)c3-c3c(cc4c(c3O)C(=O)c3cc(OC)cc(O)c3C4=O)[C@@H]2O)O[C@@H]1C [Example 2, 3'-O-(β-D-Ribopyranosyl)-pradimicin B] | 1.6 (≈ 1.9 µM) | 12.5 (≈ 14.9 µM) | > 25 | 25 (≈ 29.7 µM) |
| CN[C@@H]1[C@H](O[C@H]2OC[C@H](O)[C@@H](O)[C@@H]2O)[C@@H](O)[C@H](O[C@H]2c3cc(C)c(C(=O)N[C@H](C)C(=O)O)c(O)c3-c3c(cc4c(c3O)C(=O)c3cc(OC)cc(O)c3C4=O)[C@@H]2O)O[C@@H]1C [Example 1, 3'-O-(β-L-xylopyranosyl)pradimicin B] | 1.6 (≈ 1.9 µM) | > 100 | 50 (≈ 59.5 µM) | > 100 |

Further molecules by falling MIC (Cryptococcus neoformans), results first:

| MIC (Cryptococcus neoformans) [µg/mL] | MIC (Aspergillus fumigatus) [µg/mL] | MIC (Candida albicans) [µg/mL] | MIC [1] [µg/mL] | Compound |
| --- | --- | --- | --- | --- |
| 1.6 (≈ 1.9 µM) | 6.3 (≈ 7.49 µM) | 6.3 (≈ 7.49 µM) | 6.3 (≈ 7.49 µM) | CN[C@@H]1[C@H](O[C@@H]2OC[C@H](O)[C@H](O)[C@H]2O)[C@@H](O)[C@H](O[C@H]2c3cc(C)c(C(=O)N[C@H](C)C(=O)O)c(O)c3-c3c(cc4c(c3O)C(=O)c3cc(OC)cc(O)c3C4=O)[C@@H]2O)O[C@@H]1C [Example 3, 3'-O-(α-L-Arabinopyranosyl)pradimicin B] |
| 1.6 (≈ 1.84 µM) | 3.1 (≈ 3.56 µM) | 12.5 (≈ 14.4 µM) | 3.1 (≈ 3.56 µM) | CN[C@@H]1[C@H](O[C@@H]2O[C@H](CO)[C@@H](O)[C@H](O)[C@H]2O)[C@@H](O)[C@H](O[C@H]2c3cc(C)c(C(=O)N[C@H](C)C(=O)O)c(O)c3-c3c(cc4c(c3O)C(=O)c3cc(OC)cc(O)c3C4=O)[C@@H]2O)O[C@@H]1C [Example 6, 3'-O-β-D-glucopyranosylpradimicin B] |
| 1.6 (≈ 1.87 µM) | 3.1 (≈ 3.63 µM) | 25 (≈ 29.2 µM) | 1.6 (≈ 1.87 µM) | CN[C@@H]1[C@H](O[C@@H]2O[C@H](C)[C@@H](O)[C@H](O)[C@H]2O)[C@@H](O)[C@H](O[C@H]2c3cc(C)c(C(=O)N[C@H](C)C(=O)O)c(O)c3-c3c(cc4c(c3O)C(=O)c3cc(OC)cc(O)c3C4=O)[C@@H]2O)O[C@@H]1C [Example 4, 3'-O-(6-Deoxy-β-D-glucopyranosyl)pradimicin B] |
| 0.8 (≈ 0.951 µM) | 1.6 (≈ 1.9 µM) | 50 (≈ 59.5 µM) | 1.6 (≈ 1.9 µM) | CN[C@@H]1[C@H](O[C@@H]2OC[C@@H](O)[C@H](O)[C@H]2O)[C@@H](O)[C@H](O[C@H]2c3cc(C)c(C(=O)N[C@H](C)C(=O)O)c(O)c3-c3c(cc4c(c3O)C(=O)c3cc(OC)cc(O)c3C4=O)[C@@H]2O)O[C@@H]1C [Pradimicin A, reference compound] |
